We go through 12 compounds from PubChem BioAssay (NCI).

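In this assay, cells in 96-well plates receive the compound at five concentrations for 48 hours. Endpoints are linearly interpolated between the surrounding concentrations. At the GI50, growth is halved. TGI: concentration producing complete growth inhibition.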

Among the test systems are RXF 393 renal; RPMI-8226 leukemia; A498 renal; SK-MEL-28 melanoma; COLO 205 colon; KM12 colon; OVCAR-4 ovarian; HCT-116 colon; 786-0 renal; SNB-19 CNS.
Test in all cases: NCI tumour cell line growth inhibition, 48 h

With `COc1cc[nH]c1/C=C1\C(=O)Nc2ccc(F)c(C#C[C@@H](O)[C@@H](N)[C@@H](C)O)c21`, the GI50 in the assay on RXF 393 renal was 0.279 µM; in the assay with RPMI-8226 leukemia, 0.683 µM; in the assay on A498 renal, 0.397 µM; in the assay with SK-MEL-28 melanoma, 0.648 µM; in the assay on COLO 205 colon it was 0.303 µM; in the assay on KM12 colon, 0.0312 µM. Besides, the GI50 in the assay on OVCAR-4 ovarian was 0.671 µM; in the assay with HCT-116 colon it was 0.323 µM; in the assay with 786-0 renal it was 0.708 µM; with SNB-19 CNS, 0.909 µM. Also, the TGI worked out at 0.955 µM in the assay with RXF 393 renal; 1.83 µM in the assay with RPMI-8226 leukemia; 0.955 µM with A498 renal; 2.86 µM in the assay on SK-MEL-28 melanoma; 0.743 µM in the assay on COLO 205 colon; 2.19 µM with KM12 colon. The TGI is 6.85 µM in the assay on OVCAR-4 ovarian, 2.89 µM with HCT-116 colon, 3.37 µM in the assay with 786-0 renal and 5.51 µM in the assay with SNB-19 CNS.
In the case of `CCOP(=O)(OCC)C1C(=O)O[C@H]2CCCC[C@@H]12` (some centres undefined), the TGI in the assay on RXF 393 renal, with RPMI-8226 leukemia, in the assay on A498 renal, in the assay on SK-MEL-28 melanoma, in the assay with COLO 205 colon and in the assay on KM12 colon was greater than 100 µM in each case. The TGI in the assay with OVCAR-4 ovarian, in the assay with HCT-116 colon, in the assay on 786-0 renal and in the assay on SNB-19 CNS was greater than 100 µM throughout.
As to `Cc1cc(C)nc(NS(=O)(=O)c2ccc(Nc3c4ccccc4nc4c(C(=O)Nc5ccc(S(N)(=O)=O)cc5)cccc34)cc2)n1`, the TGI in the assay on RXF 393 renal, with RPMI-8226 leukemia, with A498 renal, in the assay with SK-MEL-28 melanoma, in the assay with COLO 205 colon and with KM12 colon was greater than 100 µM throughout. For the same compound, the TGI with OVCAR-4 ovarian, in the assay with HCT-116 colon, in the assay on 786-0 renal and in the assay on SNB-19 CNS was greater than 100 µM throughout.
Consider `O=C1C=C[C@]2(C[C@@H](c3cccc(C(F)(F)F)c3)O[C@@H](c3cccc(C(F)(F)F)c3)O2)O1`, for which the GI50 in the assay with RXF 393 renal was 1.67 µM; with RPMI-8226 leukemia, 1.12 µM; in the assay on A498 renal, 1.81 µM; with SK-MEL-28 melanoma it was 2.34 µM; in the assay with COLO 205 colon it was 1.88 µM; in the assay on KM12 colon it was 3.09 µM. Besides, the GI50 in the assay on OVCAR-4 ovarian was 5.24 µM; in the assay on HCT-116 colon, 1.08 µM; with 786-0 renal, 1.35 µM; in the assay with SNB-19 CNS it was 3.13 µM. For the same compound, the TGI in the assay on RXF 393 renal was found to be 3.91 µM; in the assay on RPMI-8226 leukemia it was 5.97 µM; in the assay on A498 renal it was 9.21 µM; in the assay with SK-MEL-28 melanoma it was 6.44 µM; in the assay with COLO 205 colon, 5.51 µM; in the assay with KM12 colon, 13.9 µM. Moreover, the TGI was 19.3 µM in the assay on OVCAR-4 ovarian, 2.64 µM in the assay on HCT-116 colon, 2.95 µM in the assay with 786-0 renal and 16.1 µM with SNB-19 CNS.
Take `CCCCCCCCCCCCc1ccc(C(=O)/C=C/C(=O)O)cc1`: the GI50 in the assay with RXF 393 renal is 1.76 µM; in the assay on RPMI-8226 leukemia it was 2.11 µM; in the assay on A498 renal, 13.2 µM; in the assay on SK-MEL-28 melanoma, 1.92 µM; with COLO 205 colon, 1.83 µM; in the assay with KM12 colon it was 11.7 µM. In addition, the GI50 in the assay with OVCAR-4 ovarian was 2.06 µM; in the assay on HCT-116 colon it was 1.54 µM; in the assay on 786-0 renal it was 2.03 µM; with SNB-19 CNS, 7.07 µM. The TGI in the assay with RXF 393 renal is 3.34 µM; in the assay with RPMI-8226 leukemia, 6.75 µM; in the assay on A498 renal, 26.7 µM; in the assay with SK-MEL-28 melanoma, 3.74 µM; with COLO 205 colon, 3.84 µM; with KM12 colon it was 25.9 µM. The TGI is 4.46 µM in the assay on OVCAR-4 ovarian, 3.39 µM in the assay on HCT-116 colon, 4.05 µM in the assay with 786-0 renal and 22 µM with SNB-19 CNS.
With `COc1ccc(-c2cc(-c3ccc(Nc4nc(Nc5ccc(Cl)cc5)nc(Nc5ccc(Cl)cc5)n4)cc3)nc(N)c2C#N)cc1`, the GI50 was 0.491 µM in the assay on RXF 393 renal; 0.931 µM in the assay on RPMI-8226 leukemia; 2.3 µM in the assay with A498 renal; 0.49 µM with SK-MEL-28 melanoma; 0.865 µM in the assay with COLO 205 colon; 1.95 µM in the assay with KM12 colon. Further, the GI50 with OVCAR-4 ovarian was 2.51 µM; with HCT-116 colon, 1.65 µM; with 786-0 renal it was 2.24 µM. For the same compound, the TGI in the assay on RXF 393 renal is 1.92 µM; in the assay with RPMI-8226 leukemia, greater than 21.9 µM; with A498 renal, 5.84 µM; in the assay with SK-MEL-28 melanoma, 1.22 µM; in the assay on COLO 205 colon, 2.75 µM; in the assay on KM12 colon, 4.24 µM. For the same compound, the TGI is greater than 100 µM in the assay on OVCAR-4 ovarian, 3.65 µM in the assay on HCT-116 colon, 5.68 µM with 786-0 renal and greater than 24.1 µM in the assay with SNB-19 CNS.
With `O/N=C1/C(=C/c2ccc(F)cc2)CCCC1C(NO)c1ccc(F)cc1` (centres undefined), the TGI in the assay with RXF 393 renal was 86.6 µM; with RPMI-8226 leukemia, 49.8 µM; with A498 renal it was greater than 100 µM; in the assay with SK-MEL-28 melanoma, greater than 100 µM; in the assay with COLO 205 colon, greater than 100 µM; in the assay with KM12 colon, 52.6 µM. In addition, the TGI in the assay on OVCAR-4 ovarian, with HCT-116 colon, in the assay with 786-0 renal and with SNB-19 CNS was greater than 100 µM throughout.
`COC(=O)Nc1nc2ccc(C(=O)c3ccc[nH]3)cc2[nH]1`: the TGI with RXF 393 renal is 4.78 µM; with RPMI-8226 leukemia, greater than 100 µM; in the assay with A498 renal, greater than 100 µM; in the assay with SK-MEL-28 melanoma it was greater than 100 µM; with COLO 205 colon, greater than 100 µM; in the assay on KM12 colon, greater than 100 µM. Further, the TGI is greater than 100 µM with OVCAR-4 ovarian, greater than 100 µM with HCT-116 colon, greater than 100 µM in the assay with 786-0 renal and greater than 54.7 µM in the assay on SNB-19 CNS.
As to `O=C1c2cc3c(cc2-c2c1c1cc(Cl)c(Cl)cc1c(=O)n2CCCn1ccnc1)OCO3`, the GI50 in the assay with RXF 393 renal is less than 0.01 µM; with RPMI-8226 leukemia, less than 0.01 µM; in the assay on A498 renal it was 0.0107 µM; in the assay with SK-MEL-28 melanoma it was 0.0665 µM; in the assay with COLO 205 colon it was less than 0.01 µM; with KM12 colon it was 0.0244 µM. The GI50 with OVCAR-4 ovarian was 0.0495 µM; in the assay with HCT-116 colon, less than 0.01 µM; in the assay with 786-0 renal, less than 0.01 µM; with SNB-19 CNS it was less than 0.01 µM. For the same compound, the TGI with RXF 393 renal was 0.0566 µM; in the assay on RPMI-8226 leukemia it was 10.4 µM; in the assay with A498 renal, 0.0638 µM; in the assay on SK-MEL-28 melanoma, greater than 100 µM; in the assay on COLO 205 colon, greater than 100 µM; in the assay on KM12 colon it was 37.1 µM. The TGI was greater than 100 µM in the assay on OVCAR-4 ovarian, 17.6 µM in the assay on HCT-116 colon, 11.4 µM with 786-0 renal and greater than 100 µM in the assay with SNB-19 CNS.
As for `COc1cccc(NC(=O)c2sc3nc4c(cc3c2N)CCCC4)c1`, the GI50 was 0.365 µM in the assay with RXF 393 renal; 0.396 µM with RPMI-8226 leukemia; 0.349 µM in the assay with A498 renal; 0.905 µM with SK-MEL-28 melanoma; 3.83 µM with COLO 205 colon; 0.414 µM with KM12 colon. The GI50 was 0.998 µM in the assay with OVCAR-4 ovarian, 0.475 µM in the assay with HCT-116 colon, 0.42 µM with 786-0 renal and 0.813 µM with SNB-19 CNS. Further, the TGI was 3.34 µM in the assay with RXF 393 renal; 78.3 µM in the assay on RPMI-8226 leukemia; 14.2 µM in the assay on A498 renal; greater than 100 µM in the assay with SK-MEL-28 melanoma; greater than 100 µM in the assay with COLO 205 colon; greater than 100 µM in the assay on KM12 colon. In addition, the TGI was 39.9 µM with OVCAR-4 ovarian, greater than 100 µM in the assay with HCT-116 colon, 19.2 µM in the assay with 786-0 renal and 53.5 µM with SNB-19 CNS.
On to `COC(=O)c1cnc(=O)n(C2CC(O)C(CO)O2)c1` (centres undefined), for which the GI50 in the assay on RXF 393 renal was greater than 100 µM; in the assay on RPMI-8226 leukemia it was 1.42 µM; in the assay on A498 renal it was greater than 100 µM; with SK-MEL-28 melanoma, greater than 100 µM; in the assay on COLO 205 colon, greater than 100 µM; with KM12 colon, greater than 100 µM. Moreover, the GI50 in the assay with OVCAR-4 ovarian, in the assay on HCT-116 colon, with 786-0 renal and in the assay on SNB-19 CNS was greater than 100 µM throughout. The TGI in the assay on RXF 393 renal is greater than 100 µM; in the assay with RPMI-8226 leukemia it was greater than 58.5 µM; with A498 renal, greater than 100 µM; in the assay with SK-MEL-28 melanoma it was greater than 100 µM; with COLO 205 colon it was greater than 100 µM; in the assay with KM12 colon, greater than 100 µM. Further, the TGI in the assay on OVCAR-4 ovarian, in the assay on HCT-116 colon, in the assay on 786-0 renal and with SNB-19 CNS was greater than 100 µM each time.
For `COc1cc(-c2cc(C(=O)N3CCN(C(=O)c4ccccc4NCc4ccco4)CC3)nc3cc(-c4ccccc4)nn23)cc(OC)c1OC`, the GI50 with RXF 393 renal is 1.53 µM; in the assay with RPMI-8226 leukemia, 3.61 µM; in the assay with A498 renal, 3.02 µM; with SK-MEL-28 melanoma, 16.6 µM; with COLO 205 colon it was 1.48 µM; in the assay with KM12 colon it was 0.878 µM. Also, the GI50 in the assay on OVCAR-4 ovarian was greater than 26.1 µM; in the assay with HCT-116 colon, 3.26 µM; in the assay with 786-0 renal, 4.55 µM; in the assay with SNB-19 CNS it was 7.87 µM. For the same compound, the TGI in the assay on RXF 393 renal is 4.17 µM; with RPMI-8226 leukemia, greater than 100 µM; in the assay on A498 renal, greater than 28.4 µM; with SK-MEL-28 melanoma, greater than 100 µM; in the assay on COLO 205 colon, 8.66 µM; with KM12 colon, greater than 100 µM. Also, the TGI in the assay with OVCAR-4 ovarian, in the assay with HCT-116 colon, in the assay with 786-0 renal and in the assay on SNB-19 CNS was greater than 100 µM in each case.
